Reference: BindingDB's records for doi:10.1016/j.bioorg.2016.01.008 (King Abdulaziz University, 2016)
Blank lines part the entries; values can stand above or below the compound they belong to.

Molecular target: Alpha-glucosidase MAL12 (Saccharomyces cerevisiae (strain ATCC 204508 / S288c), UniProt P53341)
Assay: In-vitro Yeast α-Glucosidase Inhibition Assay
Description: α-Glucosidase inhibitory activity was evaluated at 37 °C, by using 0.1M phosphatebuffer (pH6.8) [28]. The enzyme(EC3.2.1.20, Saccharomyces cerevisiae purchased from sigma; catalog # G5003) (0.2 U/mL) was incubated with test compounds and phosphate buffer at 37 °C for 15 min. After 15min of incubation, 0.7 mM of substrate i.e. p-nitrophenyl-α-D-glucopyranoside (Sigma; catalog # N1377) was added and the change in absorbance was recorded at 400 nm for 30min by using spectrophotometer (SpectraMax M2, Molecular Devices, CA, USA).

Chain of Alpha-glucosidase MAL12 (P53341 whole entry): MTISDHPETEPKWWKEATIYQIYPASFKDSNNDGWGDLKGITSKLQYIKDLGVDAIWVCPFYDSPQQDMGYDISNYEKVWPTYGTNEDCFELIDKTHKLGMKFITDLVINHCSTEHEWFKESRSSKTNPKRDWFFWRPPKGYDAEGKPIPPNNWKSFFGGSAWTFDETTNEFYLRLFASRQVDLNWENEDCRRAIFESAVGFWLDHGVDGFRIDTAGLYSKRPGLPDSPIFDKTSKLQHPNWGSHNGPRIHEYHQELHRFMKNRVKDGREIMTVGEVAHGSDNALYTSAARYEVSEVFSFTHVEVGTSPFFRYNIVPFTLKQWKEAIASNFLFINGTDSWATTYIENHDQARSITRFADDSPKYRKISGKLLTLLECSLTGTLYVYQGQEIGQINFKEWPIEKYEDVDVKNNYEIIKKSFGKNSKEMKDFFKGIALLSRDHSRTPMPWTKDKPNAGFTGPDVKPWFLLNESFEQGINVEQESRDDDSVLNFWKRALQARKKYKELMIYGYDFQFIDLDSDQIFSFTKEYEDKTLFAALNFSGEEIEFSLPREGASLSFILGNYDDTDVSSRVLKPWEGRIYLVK

Compound: Cc1n[nH]c2c1C(c1ccc(Cl)cc1Cl)C(C#N)=C(N)O2 (stereo not given) [6-Amino-4-(2,4-dichlorophenyl)-3-methyl-2,4-dihydropyrano[2,3-c]pyrazole-5-carbonitrile (4)]
IC50: 180 µM

Compound: Cc1[nH]nc2c1C(c1ccc([N+](=O)[O-])cc1)C(C#N)=C(N)O2 (stereo not given) [6-Amino-3-methyl-4-(4-nitrophenyl)-2,4-dihydropyrano[2,3-c]pyrazole-5-carbonitrile (1)]
IC50: 54.2 µM

Compound: Cc1[nH]nc2c1C(c1ccccc1OCc1ccccc1)C(C#N)=C(N)O2 (stereo not given) [6-Amino-4-(2-(benzyloxy)phenyl)-3-methyl-2,4-dihydropyrano[2,3-c]pyrazole-5-carbonitrile (33)]
IC50: 164 µM

Continued, values first:

IC50: 160 µM
Compound: Cc1[nH]nc2c1C(c1ccc(O)c(OCc3ccccc3)c1)C(C#N)=C(N)O2 (stereo not given) [6-Amino-4-(3-(benzyloxy)-4-hydroxyphenyl)-3-methyl-2,4-dihydropyrano[2,3-c]pyrazole-5-carbonitrile (22)]

IC50: 60.8 µM
Compound: COc1cc(C2C(C#N)=C(N)Oc3n[nH]c(C)c32)ccc1OCc1ccccc1 (stereo not given) [6-Amino-4-(4-(benzyloxy)-3-methoxyphenyl)-3-methyl-2,4-dihydropyrano[2,3-c]pyrazole-5-carbonitrile (30)]
